Measured values published in PubChem BioAssay (NCI).
“And” between values parts separate entries of the source, which are not always exact repeats. Identical values can stand only once.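 Compound exposure: 48 hours, 5 concentrations, 96-well plates. Here, GI50 denotes the concentration required for 50% inhibition of growth. TGI: total growth inhibition.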

Experiments:
Test in all cases: DTP human tumour cell line panel, 48 h
[1] = test system: SW-620 colon
[2] = test system: NCI-H522 lung
[3] = test system: U251 CNS
[4] = test system: 786-0 renal
[5] = test system: UACC-62 melanoma
[6] = test system: ACHN renal
[7] = test system: OVCAR-5 ovarian
[8] = test system: NCI-H23 lung
[9] = test system: NCI/ADR-RES ovarian
[10] = test system: T-47D breast

How did the TGI [1] turn out when `COc1cccc(-n2c3nc(=O)n(C)c(=O)c-3nc3ccccc32)c1` was run?
Its TGI is 51.6 µM.

And the TGI [2]?
Its TGI is 97.5 µM.

What about the TGI [3] of the same compound?
Its TGI is 38.2 µM.

What about the TGI [4] of the same compound?
Its TGI is over 100 µM.

And the TGI [5]?
Its TGI is 19.5 µM.

What about the TGI [6] of the same compound?
The TGI was 47.3 µM.

And the TGI [7]?
Its TGI is 37.2 µM.

What about the TGI [8] of the same compound?
Its TGI is 62 µM.

How did the TGI [1] turn out when `CC(=O)c1sc(-c2nc(C)c(C(=O)/C=C\c3ccc(/C=C\C(=O)c4sc(-c5nc(C)c(C(C)=O)s5)nc4C)cc3)s2)nc1C` was run?
Its TGI is over 100 µM.

What about the TGI [2] of the same compound?
The TGI was over 100 µM.

And the TGI [3]?
The TGI was over 100 µM.

What about the TGI [4] of the same compound?
Its TGI is over 100 µM.

And the TGI [5]?
Its TGI is over 100 µM.

What about the TGI [6] of the same compound?
Its TGI is over 100 µM.

And the TGI [7]?
The TGI was over 100 µM.

What about the TGI [8] of the same compound?
Its TGI is over 100 µM.

What does the source list for `CC12CCCCC1(C)C2Sc1ccccc1` (stereo not drawn)?
TGI [1]: > 100 µM; TGI [2]: > 69.3 µM; TGI [3]: > 67.2 µM; TGI [4]: > 100 µM; TGI [5]: > 100 µM; TGI [6]: > 100 µM; TGI [7]: > 100 µM; TGI [8]: > 100 µM

For `COC(=O)CCC(=O)CC1CC(=O)C2CCCN12` (stereo not drawn), which TGI [1] is on record?
Its TGI is over 100 µM.

What about the TGI [2] of the same compound?
Its TGI is over 100 µM.

What about the TGI [3] of the same compound?
The TGI was over 100 µM.

And the TGI [4]?
Its TGI is over 100 µM.

And the TGI [5]?
The TGI was over 100 µM.

What about the TGI [6] of the same compound?
Its TGI is over 100 µM.

What about the TGI [7] of the same compound?
Its TGI is over 100 µM.

What about the TGI [8] of the same compound?
Its TGI is over 100 µM.

Which TGI [1] does the source give for `CC(C)(C=O)CC(C#N)/C(=N\NC(N)=O)C(=O)Nc1ccccc1C(N)=O` (stereo not drawn) here?
Its TGI is over 100 µM.

What about the TGI [2] of the same compound?
Its TGI is over 100 µM.

And the TGI [3]?
The TGI was over 100 µM.

And the TGI [4]?
The TGI was over 100 µM.

What about the TGI [5] of the same compound?
The TGI was over 100 µM.

And the TGI [6]?
Its TGI is over 100 µM.

And the TGI [7]?
The TGI was over 100 µM.

And the TGI [8]?
Its TGI is over 100 µM.

What does the source list for `COc1ccc(C2c3cc(OC)c(OC)cc3C(Cc3ccc([N+](=O)[O-])cc3)C2c2ccc([N+](=O)[O-])cc2)cc1OC` (stereo not drawn)?
TGI [1]: > 100 µM; TGI [2]: > 100 µM; TGI [3]: > 100 µM; TGI [4]: > 100 µM; TGI [5]: > 100 µM; TGI [6]: > 100 µM; TGI [7]: > 100 µM; TGI [8]: > 100 µM

`C=C1C[C@]23CCC4C(C)(C)C(=O)CC[C@]4(C)C2C[C@H]1C(O)C3=O` (stereo partly drawn) was tested. Which TGI [1] did it give?
The TGI was over 75 µM.

What about the TGI [2] of the same compound?
Its TGI is over 75 µM.

What about the TGI [3] of the same compound?
The TGI was over 75 µM.

And the TGI [4]?
Its TGI is over 75 µM.

And the TGI [5]?
Its TGI is over 75 µM.

What about the TGI [6] of the same compound?
The TGI was over 75 µM.

What about the TGI [8] of the same compound?
The TGI was over 75 µM.

With `CC(C)N=c1cc2n(-c3ccc(Cl)cc3)c3ccccc3nc-2cc1Nc1ccc(Cl)cc1` as the compound, how does the GI50 [1] read?
The GI50 was 2960 nM.

What about the TGI [1] of the same compound?
Its TGI is over 100 µM.

And the GI50 [9]?
Its GI50 is 2300 nM.

What about the TGI [9] of the same compound?
Its TGI is over 100 µM.

What about the GI50 [3] of the same compound?
The GI50 was 1070 nM and 3110 nM.

What about the TGI [3] of the same compound?
The TGI was over 100 µM.

What about the GI50 [10] of the same compound?
The GI50 was 2370 nM.

And the TGI [10]?
Its TGI is over 50 µM.

And the GI50 [4]?
The GI50 was 1520 nM and 3120 nM.

And the TGI [4]?
The TGI was over 100 µM.

What about the GI50 [5] of the same compound?
The GI50 was 1960 nM.

What about the TGI [5] of the same compound?
Its TGI is over 50 µM.

And the GI50 [6]?
Its GI50 is 1180 nM and 2180 nM.

And the TGI [6]?
The TGI was over 100 µM.

What about the GI50 [7] of the same compound?
The GI50 was 2150 nM.

What about the TGI [7] of the same compound?
The TGI was over 100 µM.

With `CCOC(=O)c1c[nH]c2oc(/C=N/N3CC(CN4CCOCC4)OC3=O)cc2c1=O` (stereo not drawn) as the compound, how does the TGI [1] read?
Its TGI is over 100 µM.

And the TGI [9]?
Its TGI is over 100 µM.

What about the TGI [3] of the same compound?
Its TGI is over 100 µM.

And the TGI [10]?
The TGI was over 100 µM.

What about the TGI [4] of the same compound?
The TGI was over 100 µM.

And the TGI [5]?
Its TGI is over 100 µM.

What about the TGI [6] of the same compound?
The TGI was over 100 µM.

And the TGI [7]?
Its TGI is over 100 µM.

And the TGI [8]?
The TGI was over 100 µM.

Which GI50 [1] does the source give for `C[C@@]12CCCc3coc(c31)C(=O)c1cc3c(cc12)C(=O)C=CC3=O` here?
The GI50 was over 1000 nM.

What about the TGI [1] of the same compound?
Its TGI is > 1 µM and 20.1 µM.

What about the GI50 [2] of the same compound?
Its GI50 is over 1000 nM.

What about the TGI [2] of the same compound?
The TGI was > 1 µM and 19.5 µM.

And the GI50 [3]?
Its GI50 is over 1000 nM.

And the TGI [3]?
Its TGI is over 100 µM.

And the GI50 [4]?
The GI50 was over 1000 nM.

What about the TGI [4] of the same compound?
The TGI was > 1 µM and 30.7 µM.

What about the GI50 [5] of the same compound?
Its GI50 is over 1000 nM.

What about the TGI [5] of the same compound?
The TGI was > 1 µM and 32.1 µM.

What about the GI50 [6] of the same compound?
The GI50 was over 1000 nM.

And the TGI [6]?
Its TGI is > 1 µM and 25.4 µM.

What about the GI50 [7] of the same compound?
Its GI50 is over 1000 nM.

What about the TGI [7] of the same compound?
Its TGI is > 1 µM and 36.4 µM.

What about the TGI [8] of the same compound?
Its TGI is 29.7 µM.

Which results are given for `Cc1cc(C)c(C2[C@H]3C(=O)N(c4ccc(Cc5ccc(N6C(=O)[C@@H]7ON(c8ccccc8)C(c8c(C)cc(C)cc8C)[C@@H]7C6=O)cc5)cc4)C(=O)[C@H]3ON2c2ccccc2)c(C)c1` (stereo partly drawn)?
TGI [1]: > 100 µM; TGI [2]: > 100 µM; TGI [3]: > 100 µM; TGI [4]: > 100 µM; TGI [5]: > 100 µM; TGI [6]: > 100 µM; TGI [7]: > 100 µM; TGI [8]: > 100 µM
